According to publication PMC11845761, “Intestinal human carboxylesterase 2 (CES2) expression rescues drug metabolism and most metabolic syndrome phenotypes in global Ces2 cluster knockout mice” (Acta Pharmacologica Sinica, 2024):
Marks after values point to notes of the source that are not given here.

Assays:
[1] = Tissue concentrations of vinorelbine and deacetylvinorelbine 4 h after i.v. vinorelbine in CES2-modified mice; type: in vivo, mouse; conditions: i.v. vinorelbine 10 mg/kg
Experimental: (§1) For capecitabine 2-h experiments, 6–7 female mice received oral capecitabine (500 mg/kg, 10 μL/g), and tail vein blood samples were collected at 0.125, 0.25, 0.5 and 1 h after drug administration. For the vinorelbine 4-h experiment, 6-7 male mice received vinorelbine intravenously (10 mg/kg, 5 μL/g) or orally (10 mg/kg, 10 μL/g) using a blunt-ended needle. Tail vein blood samples were collected at 0.125, 0.25, 0.5, 1 and 2 h after drug administration. […] At the last time point in each experiment (2 or 4 h), mice were anesthetized with 5% isoflurane and blood was collected by cardiac puncture. […] Plasma was isolated from the blood by centrifugation at 9000 × g for 6 min at 4 °C, and the plasma fraction was collected and stored at −30 °C until analysis.
(§2) Concentrations of capecitabine (and its metabolites) and vinorelbine (and its metabolite) in mouse plasma samples and organ homogenates were determined using two independent validated high-performance liquid chromatography-tandem mass spectrometry assays.
(§3) Pharmacokinetic parameters were calculated by non-compartmental methods using the PK solver software. […] Differences were considered statistically significant when P < 0.05. All data are presented as mean ± SD.

[2] = Plasma pharmacokinetics of vinorelbine and deacetylvinorelbine after oral vinorelbine in CES2-modified mice; type: in vivo, mouse; conditions: oral vinorelbine 10 mg/kg; for AUC0-4h / AUC0-4h ratio (× 10^−3) (deacetylvinorelbine/vinorelbine) / Cmax / Tmax: plasma
Experimental: as §1, §2, §3

[3] = design: method as in PMID 11822766; conditions: 24 patients; oral vinorelbine 80 mg/m^2; cited from earlier work

CCC1=C[C@@H]2CN(C1)Cc1c([nH]c3ccccc13)[C@@](C(=O)OC)(c1cc3c(cc1OC)N(C)[C@H]1[C@@](O)(C(=O)OC)[C@H](O)[C@]4(CC)C=CCN5CC[C@]31[C@@H]54)C2 [Deacetylvinorelbine, 4’-O-deacetylvinorelbine]
CSI (small intestine tissue concentration) ([1]; male Ces2^–/– mice): 87 ± 15 ng/g
CSIC (small intestine contents concentration) ([1]; male Ces2^–/– mice): 291 ± 180 ng/g
Ccolon (colon concentration) ([1]; male Ces2^–/– mice): 58 ± 45 ng/g
Cliver (liver concentration) ([1]; male Ces2^–/– mice): 487 ± 127 ng/g
Colon Ratio (x 10^-3) (deacetylvinorelbine /vinorelbine) ([1]; male Ces2^–/– mice): 9.4 ± 3.8 x 10^-3
Liver Ratio (x 10^-3) (deacetylvinorelbine /vinorelbine) ([1]; male Ces2^–/– mice): 21 ± 1.9 x 10^-3
Small intestine Ratio (x 10^-3) (deacetylvinorelbine /vinorelbine) ([1]; male Ces2^–/– mice): 15 ± 1.2 x 10^-3
Small intestine contents Ratio (x 10^-3) (deacetylvinorelbine /vinorelbine) ([1]; male Ces2^–/– mice): 7.4 ± 1.0 x 10^-3
liver deacetylvinorelbine-to-vinorelbine ratio ([1]; male Ces2^–/– mice): 0.021 ± 0.002
small intestine conversion ratio (deacetylvinorelbine-to-vinorelbine) ([1]; male Ces2^–/– mice): 0.015 ± 0.001
CSI (small intestine tissue concentration) ([1]; male Ces2^–/–A mice): 79 ± 13 ng/g
CSIC (small intestine contents concentration) ([1]; male Ces2^–/–A mice): 400 ± 315 ng/g
Ccolon (colon concentration) ([1]; male Ces2^–/–A mice): 42 ± 43 ng/g
Cliver (liver concentration) ([1]; male Ces2^–/–A mice): 584 ± 157 ng/g
Colon Ratio (x 10^-3) (deacetylvinorelbine /vinorelbine) ([1]; male Ces2^–/–A mice): 7.0 ± 3.7 x 10^-3
Liver Ratio (x 10^-3) (deacetylvinorelbine /vinorelbine) ([1]; male Ces2^–/–A mice): 25± 7.0 x 10^-3
Small intestine Ratio (x 10^-3) (deacetylvinorelbine /vinorelbine) ([1]; male Ces2^–/–A mice): 14 ± 1.0 x 10^-3
Small intestine contents Ratio (x 10^-3) (deacetylvinorelbine /vinorelbine) ([1]; male Ces2^–/–A mice): 8.1 ± 1.1 x 10^-3
liver deacetylvinorelbine-to-vinorelbine ratio ([1]; male Ces2^–/–A mice): 0.025 ± 0.0070
small intestine conversion ratio (deacetylvinorelbine-to-vinorelbine) ([1]; male Ces2^–/–A mice): 0.014 ± 0.001
CSI (small intestine tissue concentration) ([1]; male Ces2^–/–V mice): 134 ± 47***^ ng/g
CSIC (small intestine contents concentration) ([1]; male Ces2^–/–V mice): 511 ± 322 ng/g
Ccolon (colon concentration) ([1]; male Ces2^–/–V mice): 120 ± 45***^ ng/g
Cliver (liver concentration) ([1]; male Ces2^–/–V mice): 513 ± 61 ng/g
Colon Ratio (x 10^-3) (deacetylvinorelbine /vinorelbine) ([1]; male Ces2^–/–V mice): 17 ± 4.7***^^ x 10^-3
Liver Ratio (x 10^-3) (deacetylvinorelbine /vinorelbine) ([1]; male Ces2^–/–V mice): 22 ± 6.6 x 10^-3
Small intestine Ratio (x 10^-3) (deacetylvinorelbine /vinorelbine) ([1]; male Ces2^–/–V mice): 17 ± 2.2***^^ x 10^-3
Small intestine contents Ratio (x 10^-3) (deacetylvinorelbine /vinorelbine) ([1]; male Ces2^–/–V mice): 10 ± 1.0 x 10^-3
liver deacetylvinorelbine-to-vinorelbine ratio ([1]; male Ces2^–/–V mice): 0.022 ± 0.007
small intestine conversion ratio (deacetylvinorelbine-to-vinorelbine) ([1]; male Ces2^–/–V mice): 0.017 ± 0.002
CSI (small intestine tissue concentration) ([1]; male wild-type mice): 2214 ± 605 ng/g
CSIC (small intestine contents concentration) ([1]; male wild-type mice): 27594 ± 13421 ng/g
Ccolon (colon concentration) ([1]; male wild-type mice): 780 ± 199 ng/g
Cliver (liver concentration) ([1]; male wild-type mice): 26773 ± 10517 ng/g
Colon Ratio (x 10^-3) (deacetylvinorelbine /vinorelbine) ([1]; male wild-type mice): 340 ± 70 x 10^-3
Liver Ratio (x 10^-3) (deacetylvinorelbine /vinorelbine) ([1]; male wild-type mice): 2500 ± 1300 x 10^-3
Small intestine Ratio (x 10^-3) (deacetylvinorelbine /vinorelbine) ([1]; male wild-type mice): 630 ± 46 x 10^-3
Small intestine contents Ratio (x 10^-3) (deacetylvinorelbine /vinorelbine) ([1]; male wild-type mice): 1000 ± 270 x 10^-3
liver deacetylvinorelbine-to-vinorelbine ratio ([1]; male wild-type mice): 2.5 ± 1.3
small intestine conversion ratio (deacetylvinorelbine-to-vinorelbine) ([1]; male wild-type mice): 0.63 ± 0.05
AUC0-4h ([2]; male Ces2^–/– mice): 1.0 ± 0.4 ng·h/mL
AUC0-4h ratio (× 10^−3) (deacetylvinorelbine/vinorelbine) ([2]; male Ces2^–/– mice): 2.0 ± 0.4 × 10^−3
Cmax ([2]; male Ces2^–/– mice): 0.42 ± 0.15 ng/mL
Tmax ([2]; male Ces2^–/– mice): 3.7 ± 0.8 h
AUC0-4h ([2]; male Ces2^–/–A mice): 3.7 ± 2.2 ng·h/mL
AUC0-4h ratio (× 10^−3) (deacetylvinorelbine/vinorelbine) ([2]; male Ces2^–/–A mice): 6.3 ± 7.8 × 10^−3
Cmax ([2]; male Ces2^–/–A mice): 1.5 ± 1.1 ng/mL
Tmax ([2]; male Ces2^–/–A mice): 2.6 ± 1.0 h
AUC0-4h ([2]; male Ces2^–/–V mice): 3.3 ± 2.3 ng·h/mL
AUC0-4h ratio (× 10^−3) (deacetylvinorelbine/vinorelbine) ([2]; male Ces2^–/–V mice): 5.3 ± 1.9 × 10^−3
Cmax ([2]; male Ces2^–/–V mice): 1.4 ± 1.2 ng/mL
Tmax ([2]; male Ces2^–/–V mice): 2.7 ± 1.0 h
plasma AUC0-4h, fold increase in Ces2^–/–A compared with Ces2^–/– mice ([2]; male mice): 3.7 fold
plasma AUC0-4h, fold increase in Ces2^–/–V compared with Ces2^–/– mice ([2]; male mice): 3.3 fold
AUC0-4h ([2]; male wild-type mice): 238 ± 112 ng·h/mL
AUC0-4h ratio (× 10^−3) (deacetylvinorelbine/vinorelbine) ([2]; male wild-type mice): 640 ± 170 × 10^−3
Cmax ([2]; male wild-type mice): 91 ± 44 ng/mL
Tmax ([2]; male wild-type mice): 1.7 ± 0.7 h
plasma Cmax [3]: 9.1 ± 3.3 ng/mL
